# Reference: publication PMC3630091, “A Mechanistic Paradigm for Broad-Spectrum Antivirals that Target Virus-Cell Fusion” (PLoS Pathogens, 2013)
# Where two headings read alike, the source gives them in different places.
# Columns and labels:
# [1] = Membrane partition into HIV membrane-like mixture LUV (fluorescence)
# VSV = assay: microbe, parasite or virus in culture; type: cell-based; conditions: Vesicular stomatitis virus, 10 min, read-out: IC50 VSV
# CMV = assay: microbe, parasite or virus in culture; type: cell-based, Cytomegalovirus (strain T3259)
# NDV = assay: microbe, parasite or virus in culture; type: cell-based, Newcastle disease virus; conditions: avian paramyxovirus 1, 10 min
# SFV = assay: microbe, parasite or virus in culture; type: cell-based; conditions: Semliki Forest virus, BHK, 10 min, read-out: IC50 SFV
# HeV = assay: microbe, parasite or virus in culture; type: cell-based, Hendra virus; conditions: Henipavirus hendraense, 10 min, read-out: IC50 HeV
# Pharmacokinetics in mice = conditions: for bioavailability: female, Balb/c, mouse, in vivo
# [2] = Membrane partition into POPC LUV (fluorescence)
# HIV = assay: microbe, parasite or virus in culture; type: cell-based; conditions: Human immunodeficiency virus 1, 10 min
# [3] = Absorbance spectra / UV-visible spectra integration; type: physicochemical
# RVFV ZH501 = type: in vivo, Balb/c mice
# in vitro = conditions: human
# [4] = Singlet oxygen quenching measurements; type: physicochemical; conditions: 355 nm with C60 as external sensitizer; error is one standard deviation
# [5] = Singlet oxygen quantum yield measurements; type: physicochemical
# Ad5 = type: cell-based, Adenovirus serotype 5; conditions: non-enveloped virus; 10 min white light exposure of treated virus
# EBOV = assay: microbe, parasite or virus in culture; type: cell-based, Ebola Zaire; conditions: Zaire ebolavirus, 10 min, read-out: IC50 EBOV
# [6] = Clinical observations after single dose in PK study; type: in vivo, female Balb/c mice; conditions: single dose 10 mg/kg ip
# Procedure: Dose administration. […] These mice were replaced and the dose level was reduced to 5 mg/kg. […] Hypoactivity was the only clinical observation noted in some of the mice treated with the 3 test articles at 10 and 100 mg/kg po. […] These animals were replaced and administered with the lower ip dose level of 1.25 mg/kg and underwent blood collections. Mice received single ip doses of 1.25 mg/kg (JL109 and JL118) or 5 mg/kg (JL122) and po doses of 10 mg/kg (JL109, JL118, JL122), 50 mg/kg (JL109, JL118), or 100 mg/kg (JL109, JL118, JL122).
# RVFV = assay: microbe, parasite or virus in culture; type: cell-based, Rift Valley fever MP-12 (vaccine strain); conditions: Rift Valley fever virus, 10 min, read-out: IC50 RVFV
# HIV-1JR-CSF = type: cell-based
# HSV = assay: microbe, parasite or virus in culture; type: cell-based, Herpes simplex virus-1; conditions: Human alphaherpesvirus 1, 10 min
# NiV = assay: microbe, parasite or virus in culture; type: cell-based, Nipah virus Malaysia
# H1N1 = assay: microbe, parasite or virus in culture; type: cell-based, Influenza A A/PR/8/34 (H1N1); conditions: read-out: IC50 H1N1
# RABV = assay: microbe, parasite or virus in culture; type: cell-based; conditions: Lyssavirus rabies, 10 min, read-out: IC50 RABV
smiles,measurement,setting,value
"CCN1C(=S)O/C(=C\c2ccc(-c3ccccc3OC)o2)C1=S [JL103, (Z) 3-Ethyl-5-[5-(2-methoxyphenyl)-furan-2-ylmethylene]oxazolid-ine-2,4-dithione]","Kp at 10 min, 50 µM",[1],310
same,IL / Iw,"[1]; HIV-like mixture LUV, fluorescence intensity ratio from curve fitting",68.29
same,IC50,VSV,11 nM
same,IC50,"CMV; Human betaherpesvirus 5, 10 min, read-out: IC50 CMV, 10 min white light exposure of treated virus",5 nM
same,IC50,"CMV; read-out: IC50 CMV, 10 min white light exposure of treated virus",4 nM
same,IC50,NDV; read-out: IC50 NDV,4 nM
same,IC50,NDV; read-out: IC50 ± SD (nM) (N=x) NDV,5.7 ± 6.4 nM
same,IC50,SFV,44 nM
same,IC50,HeV,0.5 nM
same,bioavailability,"Pharmacokinetics in mice; ip, 10 mg/kg",~50%
same,bioavailability,"Pharmacokinetics in mice; po, 100 mg/kg",3.1 to 105%
same,improvements in relevant pharmacokinetic (PK) parameters compared to LJ001,"Pharmacokinetics in mice; half-life, AUC, bioavailability, clearance",> 10 fold
same,"Kp at 10 min, 50 µM",[2],580
same,IL / Iw,"[2]; POPC LUV, fluorescence intensity ratio from curve fitting",14.78
same,IC50,HIV; read-out: IC50 HIV,13 nM
same,IC50,HIV; read-out: IC50 ± SD (nM) (N=x) HIV,12.2 ± 9.7 nM
same,Abs Max (λmax),[3]; 100 µM in DMSO,515 nm
same,AUC (400-750 nm),"[3]; integrated absorption divided by concentration, normalized relative to LJ001 (LJ001 = 100)",153
same,"total integrated absorption (AUC), times that of LJ001",[3]; λ = 400 to 750 nm,1.53 times
same,time-to-death / survival compared to untreated controls,"RVFV ZH501; 20 pfu RVFV ZH501 IP, IP once a day for 7 days from 1 h post-challenge, JL118 1.25 mg/kg, JL122 and JL103 10 mg/kg",no significant effect on survival
same,Median survival,"RVFV ZH501; 50 pfu RVFV ZH501 IP, 10 mg/kg IP at 1, 12, 24 and 48 h post-challenge, n = 5",3 days
same,CC50,in vitro,9140 nM
same,kT × 10-7,[4],0.636 ± 0.030 M-1s-1
same,"QY at 355 nm, times higher than LJ001",[5]; 355 nm,about 2 times
same,1O2 QY 355 nm,"[5]; in CD2Cl2, excitation 355 nm, error is one standard deviation",0.36 ± 0.02
same,1O2 QY 532 nm,"[5]; in CD2Cl2, excitation 532 nm, error is one standard deviation",0.30 ± 0.03
same,IC50 Ad5,Ad5,inactive
same,IC50,EBOV,185 nM
same,clinical observations,[6],appeared normal
same,IC50,RVFV,3 nM
same,reduction of antiviral activity at physiological Hct,HIV-1JR-CSF,> 50%
same,IC50,HSV; read-out: IC50 HSV,2 nM
same,IC50,HSV; read-out: IC50 ± SD (nM) (N=x) HSV,1.9 ± 2.5 nM
same,IC50,"NiV; Henipavirus nipahense, 10 min, read-out: IC50 NiV, 10 min white light exposure of treated virus",3.9 nM
same,IC50,"NiV; read-out: IC50 NiV, 10 min white light exposure of treated virus",4 nM
same,IC50,"H1N1; Influenza A virus, H1N1, 10 min",1.7 nM
same,IC50,H1N1,2 nM
same,IC50,RABV,260 nM
